Test results reported in US20140248212A1, “NON-IMMUNOGENIC POSITRON EMISSION TOMOGRAPHY REPORTER GENE SYSTEMS” (THE REGENTS OF THE UNIVERSITY OF CALIFORNIA, priority 2011, published 2014).
“Also recorded” adds a separate entry of the source.

Legend:
[1] = Biodistribution of PET reporter probes in mice (microPET/CT); type: in vivo, C57/BL6 mice
Protocol: To identify candidate PRPs, eight nucleoside analogs (FIG. 7A) were synthesized that were amenable to ^18F labeling (the first criterion for PRPs). To identify PRP candidates with rapid clearance from normal tissues and low overall background (second criterion for PRGs), biodistribution studies in mice were performed. It was observed that natural (D) nucleosides had higher background than non-natural (L) nucleoside analogs. […] The next step was to identify a human nucleoside kinase that phosphorylates L-[^18F]FMAU and L-[^18F]FEAU, and can be converted into a new PRG that matches four criteria:
Initially, a group of nucleoside analogs amenable to fluorine-18 labeling were identified. These PET tracers, 5 of which were novel, were then screened to determine their biodistribution in C57/BL6 mice (n=3 for each PET tracer) through dynamic microPET scans. […] Rational design is utilized to introduce mutations into human nucleoside kinase thymidine kinase 2 (TK2) to improve the affinity of the kinase for the top candidate probe. The sensitivity and specificity of the novel PET reporter probe/gene pair was then determined in vitro and in vivo using a murine cancer model.
(§1) Animal studies were approved and carried out according to specific guidelines. C57/BL6 mice were injected with the indicated probe and underwent micro-PET/CT analyses at 1- and 3-h post probe injection (Inveon, Siemens Medical Solutions USA Inc.; microCAT; Imtek Inc.). For tumor imaging studies, SCID mice were injected subcutaneously on day −7 in the right and left flanks with 1×10^6 L1210-PRG-expressing cells in 50% v/v phosphate-buffered saline and 50% v/v Matrigel™ (BD Biosciences). For imaging experiments, mice were kept warm and under gas anesthesia (2% v/v isoflurane) and were injected intravenously with 200 μCi of ^18F-labeled probes. A 3-h interval was allowed between probe administration and microPET/CT scanning Static microPET images were acquired for 600 s. Image data were evaluated in three-dimensional histograms and reconstructed with a zoom factor of 2.1 using three-dimensional ordered set expectation maximization (OSEM) with 2 iterations followed by MAP (maximum a posteriori) reconstruction with 18 iterations (beta=0.1). Images were analyzed using OsiriX Imaging Software Version 3.8.

[2] = Human whole-body PET/CT biodistribution of PET reporter probes; type: in vivo; conditions: for accumulation in myocardium / heart and liver: healthy volunteers; for intestinal / GI tract activity compared with 18F-FHBG / tracer background within abdomen and pelvis: human; for tracer background within abdomen and pelvis: whole-body PET/CT
Text: All studies involving human volunteers were approved. A healthy person and a healthy volunteer were recruited for the L-^18F-FMAU biodistribution study. Each volunteer received a bolus intravenous injection of ˜56 MBq (1.5 mCi) sterile L-^18F-FMAU and had four consecutive whole-body (starting from just above the head to above the knees, 6 bed positions, 5-min scan at each bed position) PET scans (Biograph 64, Siemens), with the first scan starting shortly after intravenous injection of L-^18F-FMAU. A low dose CT scan was also obtained for attenuation correction. Volunteers urinated after all scans had been performed. The region of interest analysis was performed to measure mean standard uptake values of L-^18F-FMAU in major organs/tissues. To illustrate the biodistribution of ^18F-FHBG, unpublished scan from a previous study (see, e.g. Yaghoubi, S. S., et al. (2009) Nat. Clin. Pract. Oncol. 6, 53-58) was used.

[3] = test system: TK2-L109F-expressing L1210 cells; experiment: L-18F-FMAU uptake assay, transduced L1210 cells (TK2-L109F); type: cell-based, murine; conditions: in the presence of 5 μM D-dT
Protocol: (§2) The L1210 cell line (see, e.g. Jordheim, L. P., et al. (2004) Clin. Cancer Res. 10, 5614-5621) was a gift. Cells were cultured at 5% v/v CO2 and 37° C. in RPMI supplemented with 5% v/v FCS. Murine stem cell virus (pMSCV)-based helper-free retroviruses encoding the TK2 mutants (or sr39tk), an internal ribosomal entry site, and the yellow fluorescent protein (YFP) were produced by transient co-transfection of the amphotrophic retrovirus packaging cell line Phoenix (American Type Culture Collection, SD 3443) (see, e.g. Hawley, R. G., et al. (1994) Gene. Ther. 1, 136-138). L1210 cells underwent spinfection with the pMSCV-TK2 mutants-internal ribosomal entry site-YFP retrovirus with 2 μg/ml Polybrene (1000×g, 120 min, 37° C.). L1210 cells expressing various PRGs, (L1210-PRG) were FACS-sorted to ensure that each population had equivalent levels of PRG expression.
(§3) L1210 cells transduced with the indicated PET reporter genes (L1210-PRG) were seeded at a density of 500,000 cells/well in 24-well plates. 5 μCi of L-^18F-FMAU were added to the L1210-PRG cells simultaneously with the indicated amounts of D-thymidine (D-dT) at a final volume of 1 ml/well. After 1 h at 37° C., cells were harvested and washed four times with ice-cold PBS. Radioactivity was measured using a gamma counter.

[4] = test system: TK2-N93D/L109F-expressing L1210 cells; experiment: L-18F-FMAU uptake assay, transduced L1210 cells (TK2-N93D/L109F); type: cell-based, murine
Protocol: as §2, §3

[5] = test system: L1210 tumors expressing TK2-N93D/L109F; experiment: microPET/CT of SCID mice bearing L1210-PRG tumors (TK2-N93D/L109F); type: in vivo
Protocol: as §1
Mice implanted with L1210 cells expressing TK2-based PRGs were scanned by microPET/CT using L-^18F-FMAU (FIG. 30A). For comparison, mice implanted with L1210 cells expressing HSV1-sr39tk were scanned by microPET/CT using ^18F-FHBG (FIG. 30B).

accumulation in the liver ([1]; 1-h post injection (data not shown)): accumulates in the liver
accumulation in the liver ([1]; 3-h time point): neither probe showed any accumulation
accumulation in the gallbladder ([1]; 3 h after administration): 1.68±0.46 % injected dose/g
retention in the thoracic cavity ([1]; 3 h after administration): very low retention
signals in the GI tract ([1]; 3 h after administration): only detected in the lower GI tract
overall background (biodistribution) ([1]; candidate 18F nucleoside analog probes in mice, FIG. 7B): lowest overall background
non-specific GI signals ([1]; increasing uptake time from 1 to 3 hours): almost completely eliminated
GI activity compared with 18F-FHBG-injected mice ([1]; mice): significantly less intense
liver activity compared with 18F-FHBG ([2]; at 2 h): more intense activity
accumulation in myocardium / heart and liver ([2]; listed as L-[^18F]FMAU): accumulates in these tissues
intestinal / GI tract activity compared with 18F-FHBG [2]: lower than that of ^18F-FHBG
intestinal / GI tract activity compared with 18F-FHBG ([2]; listed as 18F-L-FMAU): lower intestinal background
tracer background within abdomen and pelvis ([2]; listed as L-[^18F]-FMAU): very low background in abdominal cavity
tracer background within abdomen and pelvis ([2]; listed as L-[^18F]FMAU): very low tracer background
Structure (SMILES): Cc1cn([C@H]2O[C@@H](CO)[C@H](O)[C@H]2[18F])c(=O)[nH]c1=O [L-^18F-FMAU, 2′-deoxy-2′-^18F-5-methyl-1-β-L-arabinofuranosyluracil]
tissues with relatively high signals ([2]; 2 h post-administration): relatively high signals were observed in liver, kidneys, gall bladder, bladder, and the GI tract
uptake pattern in healthy volunteer ([2]; first in human study, FIG. 20): mainly in its clearance routes, liver and bladder, with relatively low accumulation in intestines and some accumulation in the heart
accumulation in myocardium / heart and liver [2]: accumulation was also observed in the myocardium; also recorded: accumulates in the myocardium and liver
L-18F-FMAU uptake as percentage of the corresponding uptake for TK2-N93D/L109F [3]: 31%
decrease of L-18F-FMAU uptake [3]: 37%
in vitro uptake of 18F-L-FMAU compared to TK2-N0 ([4]; TK2-N5 (TK2-N93D/L109F)): two-fold increase
inhibition of uptake by thymidine compared to TK2-N0 ([4]; TK2-N5 (TK2-N93D/L109F)): less resistance to inhibition by thymidine
L-18F-FMAU uptake, higher than that of TK2-L109F cells ([4]; absence of D-dT): ~4 times
L-18F-FMAU uptake, higher than that of TK2-N93D cells ([4]; absence of D-dT): 1.5 times
decrease of L-18F-FMAU uptake ([4]; in the presence of 5 μM D-dT): 47%
probe uptake in L1210 tumors ([5]; L-18F-FMAU, 3 h post-injection): 19.9±1.5 % injected dose/g
L-18F-FMAU uptake, higher than that of TK2-N93D-expressing cells ([5]; in vivo, FIG. 30C): 2.6 fold
